Measurements taken from patent US20250136570A1 (Tango Therapeutics, Inc., priority 2021, published 2025).

Tests used:
Recombinant HDAC1 = Recombinant HDAC1 (Homo sapiens (Human), UniProt Q13547); assay: HDAC1 inhibition, Fluor de Lys fluorescent enzyme assay; format: biochemical; conditions: 3 hours pre-incubation at room temp; 6 nM enzyme; 16 μM Fluor de Lys substrate; duplicate
Method in brief: (§1)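 Enzyme (HDAC1 6 nM, HDAC3/NCor2 1.2 nM final) pre-incubated with compound 3 h at ~22 °C in Tris pH 8 buffer with 0.01% BSA. Reaction run 1 h with 16 μM Fluor de Lys substrate and stopped with TSA-containing developer. Fluorescence read at Ex 360/Em 460; IC50 from an occupancy equation with Hill coefficient, in duplicate.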

HDAC3/NCor2 = HDAC3/NCor2 (Homo sapiens (Human), UniProt O15379); assay: HDAC3 inhibition, Fluor de Lys fluorescent enzyme assay; format: biochemical; conditions: 3 hours pre-incubation at room temp; 1.2 nM enzyme; 16 μM Fluor de Lys substrate; duplicate
Method in brief: as §1

Sequence of Recombinant HDAC1 (Q13547 whole entry): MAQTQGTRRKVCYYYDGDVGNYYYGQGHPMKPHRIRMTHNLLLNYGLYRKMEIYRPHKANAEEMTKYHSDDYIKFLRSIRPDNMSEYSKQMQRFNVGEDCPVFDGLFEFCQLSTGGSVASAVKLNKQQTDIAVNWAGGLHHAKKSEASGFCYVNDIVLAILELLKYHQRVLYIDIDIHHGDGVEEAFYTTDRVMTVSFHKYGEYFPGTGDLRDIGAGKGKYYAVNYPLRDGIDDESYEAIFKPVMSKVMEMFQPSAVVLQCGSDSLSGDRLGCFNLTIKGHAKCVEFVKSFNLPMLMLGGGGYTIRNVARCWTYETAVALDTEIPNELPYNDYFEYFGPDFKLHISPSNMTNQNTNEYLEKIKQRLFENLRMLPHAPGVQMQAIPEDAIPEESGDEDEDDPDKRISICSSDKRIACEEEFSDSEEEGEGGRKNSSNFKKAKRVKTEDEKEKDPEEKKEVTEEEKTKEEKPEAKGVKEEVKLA
Sequence of HDAC3/NCor2 (O15379 whole entry): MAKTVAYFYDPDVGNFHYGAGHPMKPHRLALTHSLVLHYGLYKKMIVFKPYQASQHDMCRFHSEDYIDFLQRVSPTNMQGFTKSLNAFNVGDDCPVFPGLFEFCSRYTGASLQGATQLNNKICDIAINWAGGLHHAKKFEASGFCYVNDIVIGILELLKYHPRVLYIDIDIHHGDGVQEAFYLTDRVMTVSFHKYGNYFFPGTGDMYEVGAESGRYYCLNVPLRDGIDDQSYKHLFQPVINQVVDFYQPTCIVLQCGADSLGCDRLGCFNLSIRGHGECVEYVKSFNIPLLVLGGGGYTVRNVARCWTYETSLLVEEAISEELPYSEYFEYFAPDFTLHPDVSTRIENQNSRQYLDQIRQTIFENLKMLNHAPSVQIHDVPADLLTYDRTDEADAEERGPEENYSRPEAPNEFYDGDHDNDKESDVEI
Sequence of HDAC3/NCor2 (Q9Y618 395-489 partner): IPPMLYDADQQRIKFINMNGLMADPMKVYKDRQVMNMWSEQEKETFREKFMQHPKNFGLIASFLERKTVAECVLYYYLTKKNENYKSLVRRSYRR

SMILES | IC50 (Recombinant HDAC1) [nM] | IC50 (HDAC3/NCor2) [nM]
Cc1ncc(S(=N)(=O)c2ccc(C(=O)Nc3cc(-c4ccc(F)cc4)ccc3N)cc2)[nH]1 (stereo not drawn) [Compound 217, N-[2-amino-5-(4-fluorophenyl)phenyl]-4-[(2-methyl-1H-imidazol-5-yl)sulfonimidoyl]benzamide] | < 100 | 100 to 500
N=S(=O)(c1ccc(C(=O)Nc2cc(-c3ccc(F)cc3)ccc2N)cn1)c1cnc[nH]1 (stereo not drawn) [Compound 219, N-[2-amino-5-(4-fluorophenyl)phenyl]-6-(1H-imidazol-5-ylsulfonimidoyl)pyridine-3-carboxamide] | < 100 | 500 to 2000
[2H]c1c([2H])c(-c2ccc(N)c(NC(=O)c3ccc(S(C)(=N)=O)cc3)c2)c([2H])c([2H])c1F (stereo not drawn) [Compound 223, N-[2-amino-5-(2,3,5,6-tetradeutero-4-fluoro-phenyl)phenyl]-4-(methylsulfonimidoyl)benzamide] | < 100 | 500 to 2000
N=S(=O)(c1ccc2sc(C(=O)Nc3cc(-c4ccc(F)cc4)ccc3N)cc2c1)C1CC1 (stereo not drawn) [Compound 224, N-[2-amino-5-(4-fluorophenyl)phenyl]-5-(cyclopropylsulfonimidoyl)benzothiophene-2-carboxamide] | < 100 | 500 to 2000
CS(=O)(=NC1CC1)c1ccc2oc(C(=O)Nc3cc(-c4ccc(F)cc4)ccc3N)cc2c1 (stereo not drawn) [Compound 230, N-[2-amino-5-(4-fluorophenyl)phenyl]-5-(N-cyclopropyl-S-methyl-sulfonimidoyl)benzofuran-2-carboxamide] | < 100 | 500 to 2000
CS(=N)(=O)c1cc2ccc(C(=O)Nc3cc(-c4ccc(F)cc4)ccc3N)cc2s1 (stereo not drawn) [Compound 236, N-[2-amino-5-(4-fluorophenyl)phenyl]-2-(methylsulfonimidoyl)benzothiophene-6-carboxamide] | < 100 | 100 to 500
CCN=S(C)(=O)c1ccc2oc(C(=O)Nc3cc(-c4ccc(F)cc4)ccc3N)cc2c1 (stereo not drawn) [Compound 237, N-[2-amino-5-(4-fluorophenyl)phenyl]-5-(N-ethyl-S-methyl-sulfonimidoyl)benzofuran-2-carboxamide] | < 100 | 500 to 2000
CC(=O)c1ccc(-c2ccc(N)c(NC(=O)c3ccc(S(C)(=N)=O)cc3)c2)s1 (stereo not drawn) [Compound 241, N-[5-(5-acetyl-2-thienyl)-2-amino-phenyl]-4-(methylsulfonimidoyl)benzamide] | > 2000 | > 2000
CC1CCS(=O)(c2ccc(C(=O)Nc3cc(-c4ccc(F)cc4)ccc3N)cc2)=N1 (stereo not drawn) [Compound 244] | < 100 | > 2000
COCCOCc1ccc(S(=N)(=O)c2ccc(C(=O)Nc3cc(-c4ccc(F)cc4)ccc3N)cc2)cn1 (stereo not drawn) [Compound 246, N-[2-amino-5-(4-fluorophenyl)phenyl]-4-[[6-(2-methoxyethoxymethyl)-3-pyridyl]sulfonimidoyl]benzamide] | < 100 | 500 to 2000
CS(=N)(=O)c1cc2cc(C(=O)Nc3cc(-c4ccc(F)cc4)ccc3N)ccc2o1 (stereo not drawn) [Compound 248, N-[2-amino-5-(4-fluorophenyl)phenyl]-2-(methylsulfonimidoyl)benzofuran-5-carboxamide] | < 100 | 500 to 2000
CS(=N)(=O)c1ccc(C(=O)Nc2cc(-c3ccsc3)ccc2N)cc1 (stereo not drawn) [Compound 249, N-[2-amino-5-(3-thienyl)phenyl]-4-(methylsulfonimidoyl)benzamide] | < 100 | 500 to 2000
CS(=N)(=O)C1(c2ccc(C(=O)Nc3cc(-c4ccc(F)cc4)ccc3N)cc2)CC1 (stereo not drawn) [Compound 251, N-[2-amino-5-(4-fluorophenyl)phenyl]-4-[1-(methylsulfonimidoyl)cyclopropyl]benzamide] | < 100 | 500 to 2000
COc1ncc(S(=N)(=O)c2ccc(C(=O)Nc3cc(-c4ccc(F)cc4)ccc3N)cc2)[nH]1 (stereo not drawn) [Compound 252, N-[2-amino-5-(4-fluorophenyl)phenyl]-4-[(2-methoxy-1H-imidazol-5-yl)sulfonimidoyl]benzamide] | < 100 | > 2000
CS(=N)(=O)c1cc2sc(C(=O)Nc3cc(-c4ccc(F)cc4)ccc3N)cc2cn1 (stereo not drawn) [Compound 253, N-[2-amino-5-(4-fluorophenyl)phenyl]-6-(methylsulfonimidoyl)thieno[3,2-c]pyridine-2-carboxamide] | < 100 | 500 to 2000

The next lines start with the values.

IC50 (Recombinant HDAC1) [nM] | IC50 (HDAC3/NCor2) [nM] | SMILES
< 100 | 500 to 2000 | COc1ncc(S(=N)(=O)c2ccc(C(=O)Nc3cc(-c4ccc(F)cc4)ccc3N)cc2)cn1 (stereo not drawn) [Compound 218, N-[2-amino-5-(4-fluorophenyl)phenyl]-4-[(2-methoxypyrimidin-5-yl)sulfonimidoyl]benzamide]
< 100 | 500 to 2000 | N=S(=O)(c1ccc(C(=O)Nc2cc(-c3ccc(F)cc3)ccc2N)cc1)c1ccc(F)c(F)c1 (stereo not drawn) [Compound 221, N-[2-amino-5-(4-fluorophenyl)phenyl]-4-[(3,4-difluorophenyl)sulfonimidoyl]benzamide]
< 100 | 500 to 2000 | COc1ccc(S(=N)(=O)c2ccc(C(=O)Nc3cc(-c4ccc(F)cc4)ccc3N)cc2)cn1 (stereo not drawn) [Compound 222, N-[2-amino-5-(4-fluorophenyl)phenyl]-4-[(6-methoxy-3-pyridyl)sulfonimidoyl]benzamide]
< 100 | 500 to 2000 | C=C(C)c1cncc(S(=N)(=O)c2ccc(C(=O)Nc3cc(-c4ccc(F)cc4)ccc3N)cc2)c1 (stereo not drawn) [Compound 225, N-[2-amino-5-(4-fluorophenyl)phenyl]-4-[(5-isopropenyl-3-pyridyl)sulfonimidoyl]benzamide]
< 100 | 500 to 2000 | CC(C)c1cncc(S(=N)(=O)c2ccc(C(=O)Nc3cc(-c4ccc(F)cc4)ccc3N)cc2)c1 (stereo not drawn) [Compound 226, N-[2-amino-5-(4-fluorophenyl)phenyl]-4-[(5-isopropyl-3-pyridyl)sulfonimidoyl]benzamide]
< 100 | 500 to 2000 | N=S(=O)(c1ccc(C(=O)Nc2cc(-c3ccc(F)cc3)ccc2N)cc1)c1cnccc1O (stereo not drawn) [Compound 227, N-[2-amino-5-(4-fluorophenyl)phenyl]-4-[(4-hydroxy-3-pyridyl)sulfonimidoyl]benzamide]
< 100 | 100 to 500 | Cc1cnc(S(=N)(=O)c2ccc(C(=O)Nc3cc(-c4ccc(F)cc4)ccc3N)cc2)[nH]1 (stereo not drawn) [Compound 228, N-[2-amino-5-(4-fluorophenyl)phenyl]-4-[(5-methyl-1H-imidazol-2-yl)sulfonimidoyl]benzamide]
< 100 | 500 to 2000 | Cc1ccc(S(=N)(=O)c2ccc(C(=O)Nc3cc(-c4ccc(F)cc4)ccc3N)cc2)nc1 (stereo not drawn) [Compound 231, N-[2-amino-5-(4-fluorophenyl)phenyl]-4-[(5-methyl-2-pyridyl)sulfonimidoyl]benzamide]
< 100 | > 2000 | N#Cc1cncc(S(=N)(=O)c2ccc(C(=O)Nc3cc(-c4ccc(F)cc4)ccc3N)cc2)c1 (stereo not drawn) [Compound 232, N-(4-amino-4′-fluoro-[1,1′-biphenyl]-3-yl)-4-(5-cyanopyridine-3-sulfonimidoyl)benzamide]
< 100 | 500 to 2000 | Cc1ccc(S(=N)(=O)c2ccc(C(=O)Nc3cc(-c4ccc(F)cc4)ccc3N)cc2)cn1 (stereo not drawn) [Compound 233, N-[2-amino-5-(4-fluorophenyl)phenyl]-4-[(6-methyl-3-pyridyl)sulfonimidoyl]benzamide]
< 100 | > 2000 | N=S(=O)(c1ccc(C(=O)Nc2cc(-c3ccc(F)cc3)ccc2N)cc1)c1cnc(O)nc1 (stereo not drawn) [Compound 234, N-[2-amino-5-(4-fluorophenyl)phenyl]-4-[(2-hydroxypyrimidin-5-yl)sulfonimidoyl]benzamide]
< 100 | 500 to 2000 | Cc1ncc(S(=N)(=O)c2ccc(C(=O)Nc3cc(-c4ccc(F)cc4)ccc3N)cc2)cn1 (stereo not drawn) [Compound 235, N-[2-amino-5-(4-fluorophenyl)phenyl]-4-[(2-methylpyrimidin-5-yl)sulfonimidoyl]benzamide]
< 100 | 500 to 2000 | N#Cc1ccc(S(=N)(=O)c2ccc(C(=O)Nc3cc(-c4ccc(F)cc4)ccc3N)cc2)cn1 (stereo not drawn) [Compound 239, N-[2-amino-5-(4-fluorophenyl)phenyl]-4-[(6-cyano-3-pyridyl)sulfonimidoyl]benzamide]
< 100 | 500 to 2000 | COc1ccncc1S(=N)(=O)c1ccc(C(=O)Nc2cc(-c3ccc(F)cc3)ccc2N)cc1 (stereo not drawn) [Compound 240, N-[2-amino-5-(4-fluorophenyl)phenyl]-4-[(4-methoxy-3-pyridyl)sulfonimidoyl]benzamide]
< 100 | 500 to 2000 | Cn1cncc1S(=N)(=O)c1ccc(C(=O)Nc2cc(-c3ccc(F)cc3)ccc2N)cc1 (stereo not drawn) [Compound 242, N-[2-amino-5-(4-fluorophenyl)phenyl]-4-[(3-methylimidazol-4-yl)sulfonimidoyl]benzamide]
< 100 | 500 to 2000 | N=S(=O)(c1ccc(C(=O)Nc2cc(-c3ccc(F)cc3)ccc2N)cc1)c1cncc(Cl)c1 (stereo not drawn) [Compound 245, N-(4-amino-4′-fluoro-[1,1′-biphenyl]-3-yl)-4-(5-chloropyridine-3-sulfonimidoyl)benzamide]
< 100 | 500 to 2000 | N=S(=O)(c1ccc(C(=O)Nc2cc(-c3ccc(F)cc3)ccc2N)cc1)c1ccc(F)cn1 (stereo not drawn) [Compound 247, N-[2-amino-5-(4-fluorophenyl)phenyl]-4-[(5-fluoro-2-pyridyl)sulfonimidoyl]benzamide]
< 100 | 500 to 2000 | N=S(=O)(c1ccc(C(=O)Nc2cc(-c3ccc(F)cc3)ccc2N)cc1)c1cncc(CO)c1 (stereo not drawn) [Compound 250, N-(4-amino-4′-fluoro-[1,1′-biphenyl]-3-yl)-4-(5-(hydroxymethyl)pyridine-3-sulfonimidoyl)benzamide]
